Values joined by “and” are separate entries in the source; they are usually repeats but may differ in a detail not shown here. Identical values can stand only once.
System: HSSY-II tumor spheroid viability
Experiment: Anticancer human tumor HSSY-II cell line growth inhibition;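 note: spheroids exposed to compounds for seven days before reading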;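 for viability, T/C: percent of DMSO vehicle control viability so 100% = untreated level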
Settings: spheroids with HUVEC and MSC; for viability, T/C: stronger effect = lower value; active = viability on the fitted dose curve at most 10% of control; inactive = the rest
Summary of the method: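 Complex spheroids of malignant cells with endothelial cells and mesenchymal stem cells; agents alone or combined, from near clinical Cmax (or 10 microM if unknown) down in half-log steps, 0.25% DMSO final.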

[1] = curve of first compound, second compound 1 µM
[2] = curve of first compound, second compound 3.16 µM
[3] = curve of first compound, second compound 10 µM
[4] = curve of first compound, second compound 31.6 µM
[5] = curve of first compound, second compound 100 µM

CC(C)n1c(=O)n(C)c2cnc3cc(F)c(-c4ccc(OCCCN5CCCCC5)nc4)cc3c21 + Cn1nnc2c(C(N)=O)ncn2c1=O
6.7 µM: IC50 [2]
9.48 µM: IC50 [5]
6.4 µM: IC50 [1]
inactive: viability, T/C (second compound 1 µM, first compound 0.0316 µM) 100% | viability, T/C (second compound 1 µM, first compound 0.1 µM) 97.4% | viability, T/C (second compound 1 µM, first compound 0.316 µM) 97.2% | viability, T/C (second compound 1 µM, first compound 1 µM) 89.6% | viability, T/C (second compound 1 µM, first compound 3.16 µM) 72.7% | viability, T/C (second compound 1 µM, first compound 10 µM) 35.8% | viability, T/C (second compound 3.16 µM, first compound 0.0316 µM) 102% | viability, T/C (second compound 3.16 µM, first compound 0.1 µM) 102% | viability, T/C (second compound 3.16 µM, first compound 0.316 µM) 98% | viability, T/C (second compound 3.16 µM, first compound 1 µM) 93.7% | viability, T/C (second compound 3.16 µM, first compound 3.16 µM) 70.1% | viability, T/C (second compound 3.16 µM, first compound 10 µM) 39.2% | viability, T/C (second compound 10 µM, first compound 0.0316 µM) 103% | viability, T/C (second compound 10 µM, first compound 0.1 µM) 107% | viability, T/C (second compound 10 µM, first compound 0.316 µM) 97.4% | viability, T/C (second compound 10 µM, first compound 1 µM) 97.4% | viability, T/C (second compound 10 µM, first compound 3.16 µM) 73.7% | viability, T/C (second compound 10 µM, first compound 10 µM) 36% | viability, T/C (second compound 31.6 µM, first compound 0.0316 µM) 108% | viability, T/C (second compound 31.6 µM, first compound 0.1 µM) 96% | viability, T/C (second compound 31.6 µM, first compound 0.316 µM) 92.4% | viability, T/C (second compound 31.6 µM, first compound 1 µM) 89.9% | viability, T/C (second compound 31.6 µM, first compound 3.16 µM) 70.9% | viability, T/C (second compound 31.6 µM, first compound 10 µM) 32.4% | viability, T/C (second compound 100 µM, first compound 0.0316 µM) 88.5% | viability, T/C (second compound 100 µM, first compound 0.1 µM) 92.9% | viability, T/C (second compound 100 µM, first compound 0.316 µM) 86.5% | viability, T/C (second compound 100 µM, first compound 1 µM) 76.1% | viability, T/C (second compound 100 µM, first compound 3.16 µM) 69.6% | viability, T/C (second compound 100 µM, first compound 10 µM) 48.4%
5.86 µM: IC50 [4]
6.54 µM: IC50 [3]

O=C(c1cc(Cc2n[nH]c(=O)c3ccccc23)ccc1F)N1CCN(C(=O)C2CC2)CC1
inactive: viability, T/C (compound 0.0949 µM) 99.1% and 104% and 93.2% | viability, T/C (compound 0.3 µM) 91.7% and 90.6% and 98.3% | viability, T/C (compound 0.949 µM) 82.3% and 86.8% and 90.7% | viability, T/C (compound 3 µM) 70.6% and 67.4% and 65.8% | viability, T/C (compound 9.49 µM) 30.7% and 11.5% and 17.9%
6.16 µM and 4.28 µM and 4.38 µM: IC50 (curve of compound)

CNCc1ccc(-c2cc(-c3nc(-c4ccc(S(=O)(=O)C(C)C)cc4)cnc3N)on2)cc1 + Cn1nnc2c(C(N)=O)ncn2c1=O
active: viability, T/C (second compound 1 µM, first compound 0.0949 µM) 9.33% | viability, T/C (second compound 1 µM, first compound 0.3 µM) 4.77% | viability, T/C (second compound 1 µM, first compound 0.949 µM) 1.51% | viability, T/C (second compound 1 µM, first compound 3 µM) 0.14% | viability, T/C (second compound 3.16 µM, first compound 0.3 µM) 4.71% | viability, T/C (second compound 3.16 µM, first compound 0.949 µM) 1.26% | viability, T/C (second compound 3.16 µM, first compound 3 µM) 0.11% | viability, T/C (second compound 10 µM, first compound 0.0949 µM) 8.12% | viability, T/C (second compound 10 µM, first compound 0.3 µM) 5.47% | viability, T/C (second compound 10 µM, first compound 0.949 µM) 1.58% | viability, T/C (second compound 10 µM, first compound 3 µM) 0.12% | viability, T/C (second compound 31.6 µM, first compound 0.3 µM) 4.8% | viability, T/C (second compound 31.6 µM, first compound 0.949 µM) 2.03% | viability, T/C (second compound 31.6 µM, first compound 3 µM) 0.15% | viability, T/C (second compound 100 µM, first compound 0.0949 µM) 5.96% | viability, T/C (second compound 100 µM, first compound 0.3 µM) 4.82% | viability, T/C (second compound 100 µM, first compound 0.949 µM) 1.42% | viability, T/C (second compound 100 µM, first compound 3 µM) 0.2%
0.0499 µM: IC50 [2]
0.046 µM: IC50 [3]
0.0441 µM: IC50 [1]
0.0427 µM: IC50 [5]
inactive: viability, T/C (second compound 1 µM, first compound 0.00949 µM) 96.8% | viability, T/C (second compound 1 µM, first compound 0.03 µM) 70.5% | viability, T/C (second compound 3.16 µM, first compound 0.00949 µM) 98.4% | viability, T/C (second compound 3.16 µM, first compound 0.03 µM) 81.4% | viability, T/C (second compound 3.16 µM, first compound 0.0949 µM) 10.3% | viability, T/C (second compound 10 µM, first compound 0.00949 µM) 102% | viability, T/C (second compound 10 µM, first compound 0.03 µM) 74.7% | viability, T/C (second compound 31.6 µM, first compound 0.00949 µM) 100% | viability, T/C (second compound 31.6 µM, first compound 0.03 µM) 75% | viability, T/C (second compound 31.6 µM, first compound 0.0949 µM) 10.7% | viability, T/C (second compound 100 µM, first compound 0.00949 µM) 91.3% | viability, T/C (second compound 100 µM, first compound 0.03 µM) 69.4%
0.047 µM: IC50 [4]

COc1cc2c(cc1O)CCNC21CSC2c3c(OC(C)=O)c(C)c4c(c3C(COC1=O)N1C(O)C3Cc5cc(C)c(OC)c(O)c5C(C21)N3C)OCO4 (stereo not given)
inactive: viability, T/C (compound 0.0003 µM) 16.7% [middle of 10 runs]
active: viability, T/C (compound 0.000949 µM) 3.25% [middle of 9 runs] | viability, T/C (compound 0.003 µM) 0.2% [middle of 7 runs]
0.187 nM [middle of 10 runs]: IC50 (compound alone, run of 12/12/2019)

— PubChem BioAssay AID1845204 (Molecular Pharmacology Branch, DTP, NCI, 2023)
